Experimental data: patent US11007256B2, “Synthetic lipopeptide vaccines and immunotherapeutics” (The University of Toledo, priority 2016, dated 2021)
Where no end group is shown, it is not given here.

Columns and labels:
[1] = system: GAD 546-554 specific CD8 T cell clone; test: Cytokine release of GAD 546-554 specific CD8 T cell clone incubated with APLs and antigen presenting cells; type: cell-based, mouse; conditions: CD8 T cell clone incubated with APL and antigen presenting cells
Text: Immune cells protect the human body from foreign antigens. However, in autoimmune diseases like type 1 diabetes (T1D), autoreactive T cells recognize pancreatic beta cell related proteins as antigens, leading to beta cell destruction. An altered peptide ligand (APL) strategy can be used to target autoreactive T cells in T1D. GAD 546-554 (SEQ ID NO: 7) is reported as a dominant epitope recognized by autoreactive T cells, in the non-obese diabetic mouse model, that can cause destruction of beta cells. Nine APLs which have single alanine substitution, at different positions of GAD 546-554 (SEQ ID NO: 7), were screened. When GAD 546-554 (SEQ ID NO: 7) specific CD8 T cell clone was incubated with different APLs and antigen presenting cells, APL9 (SEQ ID NO: 8) inhibited both IFN-γ and TNF-α release. In order to improve antigen presentation and endosomal escape of APL9 (SEQ ID NO: 8), a bioconjugate platform of a liposome containing a Formula I bioconjugate of APL9 (SEQ ID NO: 8) and the toll like receptor ligand, Pam3CysSK4 (“CysSK4” disclosed as SEQ ID NO: 16), as well as antibody against macrophage and dendritic cell protein, F4/80, was developed. This immunotherapy strategy is beneficial to prevent T1D by rendering autoreactive immune cells more tolerant of beta cells. […]

[2] = system: GAD 546-554 specific CD8 T cell clone (CTL.546L); test: Interferon gamma release of CTL.546L co-cultured with bioconjugate-treated M12C3.B7 APCs; type: cell-based, mouse; conditions: compared with free peptide GAD 546-544; M12C3.B7 APCs treated 3 hours, co-culture 24 hours (FIG. 29)
Experimental: M12C3B7, B cell line, was used as an APC. […] Later, these cells were co-cultured with CTL.546.L (2×10^5 cells/well) for 24 hours. After 24 hours of incubation, supernatants were collected for studying the interferon gamma release.
Co-culture was incubated for 24 hours at 37° C. Supernatants were used to study the IFNγ release.

Splenocytes = test: T stimulation assay with IFNγ secreting ELISPOT kit on splenocytes of treated NOD mice; type: cell-based, NOD female mice
Experimental: (FIG. 30.) Further, this system was studied in non-diabetic non-obese diabetic model (NOD). […] These mice were sacrificed and their spleens were collected for performing T stimulation assay using IFNγ secreting ELISPOT kit. […] After 36 hours of incubation, IFNγ secreting cells were looked for.

SYQPLGDAV [APL9]
IFN-γ release [1]: inhibited | TNF-α release [1]: inhibited

bioconjugate 546-554: Formula I bioconjugate of GAD 546-554 (SYQPLGDKV, SEQ ID NO: 7) with Pam3CysSK4 (also: Formula I bioconjugate with Pam3CysSK4, attachment site not given here)
IFNγ release [2]: significantly lower

bioconjugate GAD 541-554: bioconjugate of GAD 541-554 (GTTMVSYQPLGDKV, SEQ ID NO: 6) (also: bioconjugate moiety, kind and site not given here)
number of IFNγ secreting cells (Splenocytes; splenocytes from vehicle treated NOD mice, treated in vitro for 36 hours (FIG. 31)): increase in number of IFNγ secreting cells | number of IFNγ secreting cells (Splenocytes; splenocytes of NOD mice primed for three consecutive weeks, then treated with either bioconjugate or bioconjugate with F4/80 for 36 hours): increase in number of IFNγ secreting cells
